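1) Cells in 96-well plates. 2) Compound, 48 h, 5 concentrations. 3) Linear interpolation between surrounding doses. 4) Unreached endpoint = highest concentration. Abbreviation: GI50, concentration required for 50% inhibition of growth.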 The source made the active and inactive calls. Rule as the data show it: active = GI50 up to about 1.1 µM and inactive = higher.
Assays:
Experiment in all cases: DTP human tumour cell line panel, 48 h
786-0 = test system: 786-0
A498 = test system: A498
ACHN = test system: ACHN
CCRF-CEM = test system: CCRF-CEM
COLO 205 = test system: COLO 205
DU-145 = test system: DU-145
HCC 2998 = test system: HCC 2998
IGROV-1 = test system: IGROV-1
K562 = test system: K562
MDA-MB-231 = test system: MDA-MB-231
MDA-MB-435 = test system: MDA-MB-435
OVCAR-4 = test system: OVCAR-4
OVCAR-5 = test system: OVCAR-5
SN12C = test system: SN12C
SNB-75 = test system: SNB-75
T47D = test system: T47D
U-251 = test system: U-251
UACC-257 = test system: UACC-257
UO-31 = test system: UO-31

| Structure (SMILES) | GI50 (786-0) | GI50 (A498) | GI50 (ACHN) | GI50 (CCRF-CEM) | GI50 (COLO 205) | GI50 (DU-145) | GI50 (HCC 2998) | GI50 (IGROV-1) | GI50 (K562) | GI50 (MDA-MB-231) | GI50 (MDA-MB-435) | GI50 (OVCAR-4) | GI50 (OVCAR-5) | GI50 (SN12C) | GI50 (SNB-75) | GI50 (T47D) | GI50 (U-251) | GI50 (UACC-257) | GI50 (UO-31) |
| --- | --- | --- | --- | --- | --- | --- | --- | --- | --- | --- | --- | --- | --- | --- | --- | --- | --- | --- | --- |
| Cc1cc(O)c2c(c1)CC(O)C1=C2C(=O)c2c(O)ccc(OC3CC(O)C(OC4CC(OC5CCC(O)C(C)O5)C(O)C(C)O4)C(C)O3)c2C1=O (stereo not drawn) | 1.42 µM (inactive) | 2.33 µM (inactive) | 1.58 µM (inactive) | 0.203 µM (active) | 1.39 µM (inactive) | 1.72 µM (inactive) | 1.85 µM (inactive) | 1.47 µM (inactive) | 1.63 µM (inactive) | 1.77 µM (inactive) | 1.03 µM (active) | 1.79 µM (inactive) | 3.81 µM (inactive) | 1.73 µM (inactive) | 2.74 µM (inactive) | 2.15 µM (inactive) | 1.32 µM (inactive) | 1.57 µM (inactive) | 1.5 µM (inactive) |
| CCN(CC)CCNC(=O)c1cn2c(ccc3sc4ccccc4c(=O)c32)n1 | 4.1 µM (inactive) | 15.3 µM (inactive) | 3.64 µM (inactive) | 2.74 µM (inactive) | 6.25 µM (inactive) | 12 µM (inactive) | 10.1 µM (inactive) | 5.38 µM (inactive) | 6.28 µM (inactive) | 8.95 µM (inactive) | 16.7 µM (inactive) | 7.89 µM (inactive) | 8.57 µM (inactive) | 9.33 µM (inactive) | 16.3 µM (inactive) | 14.5 µM (inactive) | 13.7 µM (inactive) | 14.3 µM (inactive) | 7.03 µM (inactive) |
| Clc1cc(OC2C3CC4CC(C3)CC2C4)nc(Cl)n1 (stereo not drawn) | 16.8 µM (inactive) | 19.1 µM (inactive) | 17.7 µM (inactive) | 16.7 µM (inactive) | 18.6 µM (inactive) | 19 µM (inactive) | 1.96 µM (inactive) | 10.6 µM (inactive) | 4.62 µM (inactive) | 13.7 µM (inactive) | 17.4 µM (inactive) | 17.1 µM (inactive) | 21.3 µM (inactive) | 16.1 µM (inactive) | 39 µM (inactive) | 20.1 µM (inactive) | 17 µM (inactive) | 13.9 µM (inactive) | 2.88 µM (inactive) |
| C=C1C(=O)OC2CC1C(OC(=O)/C=C/c1ccccc1)C/C(C)=C/CC/C(C)=C/CCC2(C)O (stereo not drawn) | 1.31 µM (inactive) | 1.91 µM (inactive) | 1.61 µM (inactive) | 0.372 µM (active) | 3.41 µM (inactive) | 1.68 µM (inactive) | 1.58 µM (inactive) | 1.56 µM (inactive) | 0.906 µM (active) | 1.66 µM (inactive) | 1.46 µM (inactive) | 0.82 µM (active) | 1.75 µM (inactive) | 1.57 µM (inactive) | 1.43 µM (inactive) | 3.47 µM (inactive) | 1.84 µM (inactive) | 1.87 µM (inactive) | 1.61 µM (inactive) |
| C#CCn1c(=O)c2cc(OC)c(OC)cc2n(CC#C)c1=O | > 10 µM (inactive) | > 10 µM (inactive) | > 10 µM (inactive) | > 10 µM (inactive) | > 10 µM (inactive) | > 10 µM (inactive) | > 10 µM (inactive) | > 10 µM (inactive) | > 10 µM (inactive) | > 10 µM (inactive) | > 10 µM (inactive) | > 10 µM (inactive) | > 10 µM (inactive) | > 10 µM (inactive) | > 10 µM (inactive) | > 10 µM (inactive) | > 10 µM (inactive) | > 10 µM (inactive) | > 10 µM (inactive) |
| O=C1C=C(Nc2ccc(Br)cc2)c2ccccc2/C1=N/O | 9.73 µM (inactive) | 5.81 µM (inactive) | 7.31 µM (inactive) | 23.6 µM (inactive) | 4.78 µM (inactive) | 1.77 µM (inactive) | 3.84 µM (inactive) | 32.6 µM (inactive) | 8.71 µM (inactive) | 9.75 µM (inactive) | 1.83 µM (inactive) | 6.84 µM (inactive) | 5.18 µM (inactive) | 10.6 µM (inactive) | 2.75 µM (inactive) | 13.6 µM (inactive) | 4.93 µM (inactive) | 1.58 µM (inactive) | 6.64 µM (inactive) |
| Cc1cc(C)nc(NC(=S)Nc2cccc(Cl)c2)c1 | > 48.5 µM (inactive) | > 47.3 µM (inactive) | 28.1 µM (inactive) | > 20 µM (inactive) | > 80.9 µM (inactive) | > 100 µM (inactive) | 65.5 µM (inactive) | 16.1 µM (inactive) | > 100 µM (inactive) | > 100 µM (inactive) | > 100 µM (inactive) | > 36.6 µM (inactive) | > 100 µM (inactive) | > 100 µM (inactive) | > 100 µM (inactive) | > 88.3 µM (inactive) | > 100 µM (inactive) | > 100 µM (inactive) | > 100 µM (inactive) |

— ChEMBL document CHEMBL1201862, “PubChem BioAssay data set” (2004)
